# Data as given in US20040142317A1, “Use of amino acid transporter atbo,+ as a delivery system for drugs and prodrugs” (priority 2003, published 2004).
# Molecular target: T1, ATB^0,+ (Mus musculus, UniProt Q9JMA9)
# T1 construct: expressed in transfected cells; host or cells: HRPE cells
# T1 sequence (Q9JMA9 1-638): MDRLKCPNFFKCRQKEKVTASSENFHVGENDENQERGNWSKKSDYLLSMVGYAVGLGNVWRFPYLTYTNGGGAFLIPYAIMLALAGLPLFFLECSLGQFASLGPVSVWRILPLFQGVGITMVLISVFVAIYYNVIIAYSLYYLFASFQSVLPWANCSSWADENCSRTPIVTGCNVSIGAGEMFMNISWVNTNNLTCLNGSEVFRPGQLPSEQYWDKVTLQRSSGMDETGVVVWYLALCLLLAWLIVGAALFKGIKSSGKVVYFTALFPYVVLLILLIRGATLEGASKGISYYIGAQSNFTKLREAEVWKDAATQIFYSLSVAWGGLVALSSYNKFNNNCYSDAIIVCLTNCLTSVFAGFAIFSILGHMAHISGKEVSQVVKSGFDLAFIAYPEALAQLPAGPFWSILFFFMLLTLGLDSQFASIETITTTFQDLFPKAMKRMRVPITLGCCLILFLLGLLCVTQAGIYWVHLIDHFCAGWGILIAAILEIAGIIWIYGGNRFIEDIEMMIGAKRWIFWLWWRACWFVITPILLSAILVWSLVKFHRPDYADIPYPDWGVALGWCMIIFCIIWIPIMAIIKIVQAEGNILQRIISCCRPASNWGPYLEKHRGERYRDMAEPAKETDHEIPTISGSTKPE
# Assay: D-[3H]-serine transport in HRPE cells transfected with transporter cDNA
# Type: cell-based
# Conditions: D-[3H]-serine 5 μM
# Procedure: Transport of D-[^3H]-serine (5 μM) was measured in HRPE cells transfected with cDNA of each transporter.
# The present inventors evaluated the function of 10 different amino acid transporter clones with respect to transport of D-serine in heterologous expression systems (FIG. 11). All of these transporters are expressed in the intestinal tract. The list of the transporters tested include three energy-independent, heterodimeric facilitative transporters (L1, L2, and b^0,+), three subtypes of the Na^+-coupled system A (ATA1, ATA2, and ATA3), two subtypes of the Na^+- and H^+-coupled system N (SN1 and SN2), the Na^+-coupled system ATB^0, and the Na^+- and Cl^−-coupled system ATB^0,+. […] The ability to transport D-serine was the highest for the Na^+- and Cl^−-coupled transporter ATB^0,+. ATB^0,+ belongs to the gene family of neurotransmitter transporters whose transport function is energized by multiple driving forces, namely a Na^+ gradient, a Cl^− gradient, and membrane potential. […] Based on the energetics of these two transport systems, ATB^0,+ is expected to play the leading role in this process.
smiles,measurement,value
"N[C@H](CO)C(=O)O [D-Serine, D-serine]",D-serine transport,highest
